Consider 2 compounds from patent EP2264054A1, “Cloning, yeast expression, purification and biological activity of a truncated form of the soybean 7S globulin alfa ' subunit involved in Hep G2 cell cholesterol homeostasis” (Indena S.p.A., priority 2009, dated 2010).

Test [1] concerns HepG2 cells. Description: Uptake of 125I-LDL by HepG2 cells. The format is cell-based, human. The conditions noted are these: 1.0 µmol/L. An excerpt:
Cell cultures. The established human hepatoma cell line (HepG2) was obtained from American Type Culture Collection (Rockville, MD). Eagle's minimum essential medium (MEM), fetal calf serum, trypsin-EDTA (1x), penicillin (10^5 U/L), streptomycin ([…]), tricine buffer (1 mmol/L, pH 7.4) and non-essential amino acid solutions (100x) were from GIBCO (Madison, WI). Petri dishes were from COSTAR (Cambridge, MA). Filters were from Millipore (Bedford, MA). The Protein Coomassie Plus Protein Assay kit was purchased from Pierce (Rockford, IL, USA). ^125Iodine, carrier free, in 100 mmol/L NaOH, was from Perkin Elmer Life Sciences (Boston, MA). Sephadex G25 columns (PD10) were from Pharmacia Biotech (Uppsala, Sweden). LDH and MTT kit were from Sigma Diagnostics (Milano-Italy). All other chemicals were of analytical grade from Merck (Darmstadt, Germany). […] Cell enzyme leakage was determined by measuring lactate dehydrogenase (LDH) activity, using a kinetic (LDH/LD) diagnostic kit (Sigma Diagnostics). […]
Uptake and degradation of ^125I-LDL. […] Specific uptake (binding + internalization) and degradation of ^l25I-LDL were evaluated as previously reported. […] Differences in cell uptake and degradation of LDL after cell incubation with tα' at different concentrations were determined by ANOVA followed by Dunnett's test. Values are expressed as means ± SD; P values < 0.05 were considered as statistically significant.

Test [2] relates to HepG2 cells. Description: Degradation of 125I-LDL by HepG2 cells. The format is cell-based, human. Particulars: 1.0 µmol/L.
Description: Cell cultures. […] Cells were grown in monolayers in 90 mm-diameter Petri dishes, and maintained at 37°C in a humidified atmosphere of 95% air, 5% CO2 in MEM supplemented with 10% fetal calf serum (FCS), non essential amino acid solution (1%, v/v), penicillin (10^5 U/L), streptomycin (0.1 g/L), tricine buffer (20 mmol/L, pH 7.4), NaHCO3 (24 mmol/L) and sodium pyruvate (0.11 g/L). For experiments designed to evaluate the LDL receptor modulation, cells were seeded in 35 mm plastic dishes (3-5 x 10^5 cells) and used just before reaching confluence. In all cell culture experiments, the medium was changed every 2-3 days. In order to assess cell viability, culture media from cells exposed to tα' at different concentrations were tested by methyltetrazolium salts (MTT) assay, essentially as described in ref. 9. Cell enzyme leakage was determined by measuring lactate dehydrogenase (LDH) activity, using a kinetic (LDH/LD) diagnostic kit (Sigma Diagnostics). […]
Uptake and degradation of ^125I-LDL. […] Specific uptake (binding + internalization) and degradation of ^l25I-LDL were evaluated as previously reported [2]. […] Differences in cell uptake and degradation of LDL after cell incubation with tα' at different concentrations were determined by ANOVA followed by Dunnett's test. Values are expressed as means ± SD; P values < 0.05 were considered as statistically significant.
For test [3], the system named is LDL-R. The conditions noted are these: Hep G2 cells exposed to the peptide at 100 µM; cited from earlier work.
[4] abbreviates: 24 h preincubation in MEM with 5% LPDS, then 125I-LDL 7.5 mg/L for 5 h, mean ± SD.

As to `CCC(C)(C)C(=O)O[C@H]1C[C@@H](C)C=C2C=C[C@H](C)[C@H](CC[C@@H]3C[C@@H](O)CC(=O)O3)[C@H]21` [Simvastatin], the Uptake is on record as 250 ± 11.2 ng125I-LDL/ mg cell proteins in test [1] (setting [4]) and 278% in test [1] (relative to LPDS = 100). Moreover, the results for the Degradation in test [2] (setting [4]) and in test [2] (relative to LPDS = 100) were 195 ± 7.9 ng125I-LDL/ mg cell protein and 250%, respectively.

As to “FVVNATSN [LDL-R transcription stimulating peptide deriving from the 7S globulin β chain, from a soybean hydrolysate and by chemical synthesis]”, the “increased LDL-R transcription” value in test [3] is given as “+148%”.
